Data from patent EP0403882A2, “Indole derivatives and processes for preparation thereof” (FUJISAWA PHARMACEUTICAL CO., LTD., priority 1989, dated 1990).

Tests used:
[1] = tested on: Cisplatin-induced vomiting; assay: Inhibition of Cisplatin-induced vomiting; format: in vivo, female beagles; settings: dose 100 μg/kg intravenously twice, 10 minutes prior to and 90 minutes after Cisplatin (3.2 mg/kg, iv); observed up to 5 hours
Description: (B) Inhibition of Cisplatin-induced vomiting
Nonfasted female beagles weighing about 10 kg were administered test compound or saline intravenously twice 10 minutes prior to and 90 minutes after Cisplatin dosing (3.2 mg/kg, iv).
Cisplatin was dissolved in 0.9% warm saline with a final concentration of 3 mgiml and used immediately.

Benzold-Jarisch reflex = assay: Inhibition of Benzold-Jarisch reflex (bradycardic response to 2-methyl-5-hydroxytryptamine in anesthetized rats); format: in vivo, Male Sprague-Dawley rats; settings: dose 3.2 μg/kg iv, given 5 minutes before 2-methyl-5-hydroxytryptamine (32 ug/kg, iv), urethane-anesthetized rats
Excerpt: (A) Inhibition of Benzold-Jarisch reflex
Male Sprague-Dawley rats weighing 260-350 g were anesthetized intraperitoneally with 1.25 g/kg urethane.
Blood pressure and heart rate were monitored continuously from the left common carotid artery with a pressure transducer. A right femoral vein was connulated for the intravenous injection (iv) of drugs. The trachea was also connulated to ease the respiration.
Rats were given a rapid bolus injection of 2-methyl-5-hydroxytryptamine (32 u.g/kg, iv) to establish the control bradycardic response. Once the heart rate returned to base line, the .rats were given the test compound (iv), followed by 5-minutes interval and another bolus injection of 2-methyl-5-hydroxytryptamine (32 ug/kg, iv).

For `Cc1cn(C(=O)CC2CC3CCC(C2)N3C)c2ccccc12.Cl` (centres unmarked) [Example 2, 3-methyl-1-[(8-methyl-8-azabicyclo[3.2.1]oct-3-yl)acetyl]indole hydrochloride], the “Inhibition (%)” value [1] was 95.2% and the “Inhibition (%)” value (Benzold-Jarisch reflex) was 52.9%.
